Data reported in US20240391926A1, “SPIROINDOLINONE COMPOUNDS AS Kv1.3 POTASSIUM SHAKER CHANNEL BLOCKERS” (D.E. Shaw Research, LLC, priority 2021, published 2024).

Molecular target: T1, Kv1.3 potassium channel (Homo sapiens, UniProt P22001)
T1 construct: expressed in transfected cells
Assay: Kv1.3 potassium channel blocker activity, automated whole-cell patch clamp (Patchliner) in CHO-K1 cells stably expressing Kv1.3
Format: cell-based
Conditions: 30 nM-100 μM
Procedure: This assay is used to evaluate the disclosed compounds' activities as Kv1.3 potassium channel blockers.
CHO-K1 cells stably expressing Kv1.3 were grown in DMEM containing 10% heat-inactivated FBS, 1 mM sodium pyruvate, 2 mM L-glutamine, and G418 (500 μg/ml). Cells were grown in culture flasks at 37° C. in a 5% CO2-humidified incubator.
The cells were bathed in an extracellular solution containing 140 mM NaCl, 4 mM KCl, 2 mM CaCl2), 1 mM MgCl2, 5 mM glucose, 10 mM HEPES; pH adjusted to 7.4 with NaOH; 295-305 mOsm. The internal solution contained 50 mM KCl, 10 mM NaCl, 60 mM KF, 20 mM EGTA, 10 mM HEPES; pH adjusted to 7.2 with KOH; 285 mOsm. All compounds were dissolved in DMSO at 30 mM. Compound stock solutions were freshly diluted with external solution to concentrations of 30 nM, 100 nM, 300 nM, 1 μM, 3 μM, 10 μM, 30 μM and 100 μM. The highest content of DMSO (0.3%) was present in 100 μM.
The currents were evoked by applying 100 ms depolarizing pulses from −90 mV (holding potential) to +40 mV were applied with 0.1 Hz frequency. Control (compound-free) and compound pulse trains for each compound concentration applied contained 20 pulses. 10-second breaks were used between pulse trains (see Table A below).
Whole-cell current recordings and compound application were enabled by means of an automated patch clamp platform Patchliner (Nanion Technologies GmbH). EPC 10 patch clamp amplifier (HEKA Elektronik Dr. Schulze GmbH) along with Patchmaster software (HEKA Elektronik Dr. Schulze GmbH) was used for data acquisition. Data were sampled at 10 kHz without filtering. Passive leak currents were subtracted online using a P/4 procedure (HEKA Elektronik Dr. Schulze GmbH). Increasing compound concentrations were applied consecutively to the same cell without washouts in between. Total compound incubation time before the next pulse train was not longer than 10 seconds. Peak current inhibition was observed during compound equilibration.
AUC and peak values were obtained with Patchmaster (HEKA Elektronik Dr. Schulze GmbH). To determine IC50, the last single pulse in the pulse train corresponding to a given compound concentration was used. Obtained AUC and peak values in the presence of compound were normalized to control values in the absence of compound. Using Origin (OridinLab), IC50 was derived from data fit to Hill equation: Icompound/Icontrol=(100−A)/(1+([compound]/IC50)nH)+A, where IC50 value is the concentration at which current inhibition is half-maximal, [compound] is the applied compound concentration, A is the fraction of current that is not blocked and nH is the Hill coefficient.

T1 sequence (P22001 whole entry): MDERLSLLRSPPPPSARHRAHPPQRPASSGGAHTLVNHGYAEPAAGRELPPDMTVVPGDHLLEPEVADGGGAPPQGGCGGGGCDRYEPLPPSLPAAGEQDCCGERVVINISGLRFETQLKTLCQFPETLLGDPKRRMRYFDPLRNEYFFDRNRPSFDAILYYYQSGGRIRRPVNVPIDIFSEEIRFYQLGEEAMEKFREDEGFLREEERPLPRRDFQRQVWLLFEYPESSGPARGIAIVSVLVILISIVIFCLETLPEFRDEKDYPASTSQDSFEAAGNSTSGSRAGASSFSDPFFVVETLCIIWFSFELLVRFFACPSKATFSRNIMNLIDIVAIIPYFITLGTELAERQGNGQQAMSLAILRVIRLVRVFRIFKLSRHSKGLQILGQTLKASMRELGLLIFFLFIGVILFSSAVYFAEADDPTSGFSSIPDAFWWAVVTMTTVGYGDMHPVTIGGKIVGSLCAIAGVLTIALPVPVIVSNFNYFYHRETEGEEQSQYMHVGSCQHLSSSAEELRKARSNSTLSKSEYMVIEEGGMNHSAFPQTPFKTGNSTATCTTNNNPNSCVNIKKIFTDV

| IC50 [µM] | Compound |
| --- | --- |
| < 1 | O=C([C@H]1CNCCO1)N1CC[C@]2(C1)C(=O)Nc1cc(Cl)c(Cl)cc12 [Compound 10, (S)-5,6-dichloro-1′-((R)-morpholine-2-carbonyl)spiro[indoline-3,3′-pyrrolidin]-2-one] |
| < 3 | O=C([C@@H]1CNCCO1)N1CC[C@]2(C1)C(=O)Nc1cc(Cl)c(Cl)cc12 [Compound 11, (S)-5,6-dichloro-1′-((S)-morpholine-2-carbonyl)spiro[indoline-3,3′-pyrrolidin]-2-one] |
| < 3 | C[C@H](O)C(=O)N1CC[C@]2(C1)C(=O)Nc1cc(Cl)c(Cl)cc12 [Compound 12, (S)-5,6-dichloro-1′-((S)-2-hydroxypropanoyl)spiro[indoline-3,3′-pyrrolidin]-2-one] |
| < 1 | O=C([C@H]1CCCNC1)N1CC[C@]2(C1)C(=O)Nc1cc(Cl)c(Cl)cc12 [Compound 16, (S)-5,6-dichloro-1′-((S)-piperidine-3-carbonyl)spiro[indoline-3,3′-pyrrolidin]-2-one] |
| < 3 | CNCC(=O)N1CC[C@]2(C1)C(=O)Nc1cc(Cl)c(Cl)cc12 [Compound 18, (S)-5,6-dichloro-1′-(methylglycyl)spiro[indoline-3,3′-pyrrolidin]-2-one] |
| < 3 | O=C(C(CO)CO)N1CC[C@]2(C1)C(=O)Nc1cc(Cl)c(Cl)cc12 [Compound 19, (S)-5,6-dichloro-1′-(3-hydroxy-2-(hydroxymethyl)propanoyl)spiro[indoline-3,3′-pyrrolidin]-2-one] |
| < 10 | O=C([C@H]1CCCO1)N1CC[C@]2(C1)C(=O)Nc1cc(Cl)c(Cl)cc12 [Compound 20, (S)-5,6-dichloro-1′-((R)-tetrahydrofuran-2-carbonyl)spiro[indoline-3,3′-pyrrolidin]-2-one] |
| < 1 | O=C([C@@H]1CCCN1)N1CC[C@]2(C1)C(=O)Nc1cc(Cl)c(Cl)cc12 [Compound 22, (S)-1′-(L-prolyl)-5,6-dichlorospiro[indoline-3,3′-pyrrolidin]-2-one] |
| < 3 | O=C([C@H]1CCCN1)N1CC[C@]2(C1)C(=O)Nc1cc(Cl)c(Cl)cc12 [Compound 23, (S)-1′-(D-prolyl)-5,6-dichlorospiro[indoline-3,3′-pyrrolidin]-2-one] |
| < 3 | O=C([C@@H]1CCOC1)N1CC[C@]2(C1)C(=O)Nc1cc(Cl)c(Cl)cc12 [Compound 24, (S)-5,6-dichloro-1′-((R)-tetrahydrofuran-3-carbonyl)Spiro[indoline-3,3′-pyrrolidin]-2-one] |
| < 3 | O=C1Nc2cc(Cl)c(Cl)cc2[C@]12CCN(C(=O)[C@H]1C[C@@H](O)C1)C2 [Compound 25, (S)-5,6-dichloro-1′-((1s,3R)-3-hydroxycyclobutane-1-carbonyl)spiro[indoline-3,3′-pyrrolidin]-2-one] |
| < 1 | O=C(CC1CNC1)N1CC[C@]2(C1)C(=O)Nc1cc(Cl)c(Cl)cc12 [Compound 26, (S)-1′-(2-(azetidin-3-yl)acetyl)-5,6-dichlorospiro[indoline-3,3′-pyrrolidin]-2-one] |
| < 3 | O=C1Nc2cc(Cl)c(Cl)cc2[C@]12CCN(C(=O)[C@H]1C[C@H](O)C1)C2 [Compound 27, (S)-5,6-dichloro-1′-((1r,3S)-3-hydroxycyclobutane-1-carbonyl)spiro[indoline-3,3′-pyrrolidin]-2-one] |
| < 1 | O=C(N1CC[C@]2(C1)C(=O)Nc1cc(Cl)c(Cl)cc12)C1(F)CCNCC1 [Compound 34, (S)-5,6-dichloro-1′-(4-fluoropiperidine-4-carbonyl)spiro[indoline-3,3′-pyrrolidin]-2-one] |
| < 1 | N[C@@H](CO)C(=O)N1CC[C@]2(C1)C(=O)Nc1cc(Cl)c(Cl)cc12 [Compound 36, (S)-1′-(L-Seryl)-5,6-dichlorospiro[indoline-3,3′-pyrrolidin]-2-one] |
| < 10 | Cn1nc(C(=O)N2CC[C@]3(C2)C(=O)Nc2cc(Cl)c(Cl)cc23)cc1N [Compound 41, (S)-1′-(5-amino-1-methyl-1H-pyrazole-3-carbonyl)-5,6-dichlorospiro[indoline-3,3′-pyrrolidin]-2-one] |
| < 1 | N[C@H](CO)C(=O)N1CC[C@]2(C1)C(=O)Nc1cc(Cl)c(Cl)cc12 [Compound 43, (S)-1′-(D-seryl)-5,6-dichlorospiro[indoline-3,3′-pyrrolidin]-2-one] |

| IC50 [µM] | Compound |
| --- | --- |
| < 3 | CC(C)C[C@@H](N)C(=O)N1CC[C@]2(C1)C(=O)Nc1cc(Cl)c(Cl)cc12 [Compound 44, (S)-1′-(D-leucyl)-5,6-dichlorospiro[indoline-3,3′-pyrrolidin]-2-one] |
| < 3 | CC(C)C[C@H](N)C(=O)N1CC[C@]2(C1)C(=O)Nc1cc(Cl)c(Cl)cc12 [Compound 45, (S)-1′-(L-leucyl)-5,6-dichlorospiro[indoline-3,3′-pyrrolidin]-2-one] |
| < 3 | CC(C)[C@@H](N)C(=O)N1CC[C@]2(C1)C(=O)Nc1cc(Cl)c(Cl)cc12 [Compound 46, (S)-1′-(D-valyl)-5,6-dichlorospiro[indoline-3,3′-pyrrolidin]-2-one] |
| < 3 | CC(C)[C@H](N)C(=O)N1CC[C@]2(C1)C(=O)Nc1cc(Cl)c(Cl)cc12 [Compound 47, (S)-1′-(L-valyl)-5,6-dichlorospiro[indoline-3,3′-pyrrolidin]-2-one] |
| < 1 | O=C(N1CC[C@]2(C1)C(=O)Nc1cc(Cl)c(Cl)cc12)[C@@]1(F)CCCNC1 [Compound 48, (S)-5,6-dichloro-1′-((R)-3-fluoropiperidine-3-carbonyl)spiro[indoline-3,3′-pyrrolidin]-2-one] |
| < 1 | O=C(C1CNCC(F)(F)C1)N1CC[C@]2(C1)C(=O)Nc1cc(Cl)c(Cl)cc12 (stereo partly drawn) [Compound 50, (3S)-5,6-dichloro-1′-(5,5-difluoropiperidine-3-carbonyl)spiro[indoline-3,3′-pyrrolidin]-2-one] |
| < 3 | O=C1Nc2cc(Cl)c(Cl)cc2[C@]12CCN(C(=O)[C@H]1CC[C@@H](O)CC1)C2 [Compound 51, (S)-5,6-dichloro-1′-((1s,4R)-4-hydroxycyclohexane-1-carbonyl)spiro[indoline-3,3′-pyrrolidin]-2-one] |
| < 3 | NC[C@H](O)C(=O)N1CC[C@]2(C1)C(=O)Nc1cc(Cl)c(Cl)cc12 [Compound 54, (S)-1′-((S)-3-amino-2-hydroxypropanoyl)-5,6-dichlorospiro[indoline-3,3′-pyrrolidin]-2-one] |
| < 1 | NC[C@@H](O)C(=O)N1CC[C@]2(C1)C(=O)Nc1cc(Cl)c(Cl)cc12 [Compound 55, (S)-1′-((R)-3-amino-2-hydroxypropanoyl)-5,6-dichlorospiro[indoline-3,3′-pyrrolidin]-2-one] |
| < 3 | O=C(C[C@H]1CCCN1)N1CC[C@]2(C1)C(=O)Nc1cc(Cl)c(Cl)cc12 [Compound 59, (S)-5,6-dichloro-1′-(2-((R)-pyrrolidin-2-yl)acetyl)spiro[indoline-3,3′-pyrrolidin]-2-one] |
| < 1 | O=C(C[C@@H]1CCCN1)N1CC[C@]2(C1)C(=O)Nc1cc(Cl)c(Cl)cc12 [Compound 61, (S)-5,6-dichloro-1′-(2-((S)-pyrrolidin-2-yl)acetyl)spiro[indoline-3,3′-pyrrolidin]-2-one] |
| < 3 | O=C(c1ccc(CO)nc1)N1CC[C@]2(C1)C(=O)Nc1cc(Cl)c(Cl)cc12 [Compound 68, (S)-5,6-dichloro-1′-(6-(hydroxymethyl)nicotinoyl)spiro[indoline-3,3′-pyrrolidin]-2-one] |
| < 10 | Cn1cc(C(=O)N2CC[C@]3(C2)C(=O)Nc2cc(Cl)c(Cl)cc23)cn1 [Compound 69, (S)-5,6-dichloro-1′-(1-methyl-1H-pyrazole-4-carbonyl)spiro[indoline-3,3′-pyrrolidin]-2-one] |
| < 3 | Nc1[nH]ncc1C(=O)N1CC[C@]2(C1)C(=O)Nc1cc(Cl)c(Cl)cc12 [Compound 70, (S)-1′-(5-amino-1H-pyrazole-4-carbonyl)-5,6-dichlorospiro[indoline-3,3′-pyrrolidin]-2-one] |
| < 3 | O=C(Cc1cn[nH]c1)N1CC[C@]2(C1)C(=O)Nc1cc(Cl)c(Cl)cc12 [Compound 72, (S)-1′-(2-(1H-pyrazol-4-yl)acetyl)-5,6-dichlorospiro[indoline-3,3′-pyrrolidin]-2-one] |
| < 3 | O=C(Cc1cc[nH]n1)N1CC[C@]2(C1)C(=O)Nc1cc(Cl)c(Cl)cc12 [Compound 73, (S)-1′-(2-(1H-pyrazol-3-yl)acetyl)-5,6-dichlorospiro[indoline-3,3′-pyrrolidin]-2-one] |
